Assay: Inhibitory activity against PRPP synthetase

**Q.** For Nc1ncnc2ncn(CCOCP(=O)(O)O)c12 [[2-(6-Amino-purin-7-yl)-ethoxymethyl]-phosphonic acid], which Ki is on record?
**A.** 17 mM

Source: BindingDB's records for doi:10.1021/jm010216r (Academia Sinica, 2001)
